Experimental data reported in patent US4863951A, “Pharmacologically active amino-5,6,7,8-tetrahydronaphtho [2,3-B] furan compounds” (ADIR Et Cie, priority 1987, dated 1989).
Where a name gives a salt, the structure may show the parent alone. Read-outs that look alike come from different tables or passages of the source.

How the values were obtained:
[1] = system: apomorphine-induced rearing-up; assay: Antagonism of apomorphine-induced rearing-up behavior in mice; assay type: in vivo; settings: Mus musculus, apomorphine 0.75 mg.kg^-1 s.c.
Method in brief: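 Mice given compound i.p. (doses from 2.5 mg.kg^-1) or orally at 20 mg.kg^-1, then challenged with apomorphine 0.75 mg.kg^-1 s.c.; antagonism of rearing-up behavior scored per Protais et al., significance at p<0.05.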

[2] = system: apomorphine-induced stereotypy; assay: Antagonism of apomorphine-induced stereotypy in rats; assay type: in vivo; settings: Rattus norvegicus, 0.5 h, apomorphine 1.5 mg.kg^-1 i.p., 30 minutes
Method in brief: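 Rats received apomorphine or amphetamine i.p. at 1.5 mg.kg^-1, and stereotyped movements were scored on the Quinton–Halliwell scale. Values are % inhibition (−) or potentiation (+) of stereotypy score, measured at 30 minutes for apomorphine and 3 hours for amphetamine.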

[3] = system: amphetamine-induced stereotypy; assay: Antagonism of amphetamine-induced stereotypy in rats; assay type: in vivo; settings: 3 hours
Method: The inhibitory activity of the compounds of the invention with respect to apomorphine- or amphetamine-induced stereotypy in rats was assessed using the scale of scoring of stereotyped movements described by Quinton R. M. and Halliwell G. in Nature (1963), 200, p. 178-179.
Apomorphine or amphetamine was administered to the animals intraperitoneally at a dose of 1.5 mg.kg^-1. The percentage inhibition (-) or potentiation (+) of the stereotypy score (% ISS) shown in Tables IV and V for apomorphine corresponds to a measurement time of 30 minutes. In contrast, the percentage inhibition of the stereotypy score shown in Table VI for amphetamine corresponds to a measurement time of 3 hours.
(s=significant difference, p<0.05).

[4] = system: apomorphine-induced hypothermia; assay: Antagonism with respect to apomorphine-induced hypothermia in mice; assay type: in vivo; settings: Mus musculus, 2 h, apomorphine 1 mg.kg^-1 s.c., after 2 hours
Method: Testing for an antagonism with respect to apomorphine-induced hypothermia in mice was performed according to the method described by CHERMAT R. and PONCELET M. in J. Pharmac. (1983), 14, No. 1, p. 93-97. The dose of apomorphine administered subcutaneously was 1 mg.kg^-1. Tables VII and VIII show the percentage antagonism of the hypothermia observed after 2 hours.

[5] = system: isolation-induced aggression; assay: Antiaggressive effects: isolation-induced aggression in mice; assay type: in vivo; settings: isolated mice, i.p.
Method in brief: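 Two paradigms: inhibition of aggressive behaviour in previously isolated mice, and in isolated, bulbectomized rats. Significance set at p<0.05.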

[6] = system: aggression of isolated, bulbectomized rats; assay: Antiaggressive effects: aggression of isolated, bulbectomized rats; assay type: in vivo; settings: i.p.
Text: The antiaggressive effects of the compounds of the invention were investigated by two methods, one of them testing for an inhibition of aggressive behavior in peviously isolated mice (Yen C. Y., Stanger A. L., and Millman N, Arch. Int. Pharmacodyn. Therap. (1959), 123, p. 179-185), and the other in isolated and bulbectomized rats (Garattini S. and Sigg E. B. "Aggressive Behaviour" p. 47-55 Ed. Excerpta Medica Found., Amsterdam, 1969).
(Tables IX and X, s=significant, p<0.05).

[7] = system: reserpine-induced hypothermia; assay: Antagonism of reserpine-induced hypothermia; assay type: in vivo, Swiss CD male mice; settings: mice, reserpine 2.5 mg.kg^-1 i.p.
Method in brief: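 Male Swiss CD mice (27-28 g, n=10/group) given reserpine 2.5 mg.kg^-1 i.p., then test compound i.p. 3 h later. Rectal temperature taken 1 and 2 h after compound dosing and compared with each animal's temperature just before compound administration.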

[8] = system: ponto-geniculo-occipital (P.G.O.) waves induced by Ro4-1284; assay: Antagonism of the ponto-geniculo-occipital (P.G.O.) waves induced by Ro4-1284; assay type: in vivo; settings: Felis catus, iv, cats, i.v., read-out: ED50 (effective dose inhibiting by 50% the number of P.G.O. waves)
Method: The antidepressant effects of the compounds of the invention were investigated by assessing the antagonism of reserpine-induced hypothermia and the antagonism of the ponto-geniculo-occipital waves induced by the compound Ro4-1284 in cats.
This study was performed according to the method of Ruch-Monachon M. A., Jalfre M. and Haefely W. described in Arch. Int. Pharm. Therap., (1976), 219, No. 2, p. 251-346, and it enabled the effective dose (i.v) inhibiting by 50% (ED50) the number of P.G.O waves to be assessed.

[9] = system: interoceptive stimulus of apomorphine; assay: Drug discrimination in rats (generalization with apomorphine); assay type: in vivo; settings: 30 minutes before test
Method: Rats were trained to discriminate between the effect of the interoceptive stimulus of apomorphine (0.2 mg.kg^-1 i.p.) and that of physiological saline, according to a principle described by Colpaert F. in "Drug discrimination application in C.N.S. Pharmacology" Ed. Elsevier Biomedical 1982, Amsterdam. […]
Under the experimental conditions employed, the behavior shown by the animals coincides with that noted in the case of administration of apomorphine.

SMILES: NC1CCc2cc3c(cc2C1)OCC3 (racemic) [Example 2, di-7-Amino-2,3,5,6,7,8-hexahydronaphtho[2,3-b]furan hydrochloride]
- change in vivo at 5 mg/kg ([1]; ip, read-out: % inhibition of rearing-up, mice, i.p. dose 5 mg.kg^-1): -56%
- change in vivo at 10 mg/kg ([1]; ip, read-out: % inhibition of rearing-up, mice, i.p. dose 10 mg.kg^-1): -58%
- change in vivo at 20 mg/kg ([1]; ip, read-out: % inhibition of rearing-up, mice, i.p. dose 20 mg.kg^-1): -91%
- change in vivo at 40 mg/kg ([1]; ip, read-out: % inhibition of rearing-up, mice, i.p. dose 40 mg.kg^-1): -100%
- change in vivo at 10 mg/kg ([1]; po, read-out: % inhibition of rearing-up, mice, p.o. dose 10 mg.kg^-1): -77%
- change in vivo at 20 mg/kg ([1]; po, read-out: % inhibition of rearing-up, mice, p.o. dose 20 mg.kg^-1): -100%
- change in vivo at 5 mg/kg ([2]; ip, read-out: % ISS (inhibition (-) or potentiation (+) of the stereotypy score), rats, i.p. dose 5 mg.kg^-1): -16%
- change in vivo at 10 mg/kg ([2]; ip, read-out: % ISS (inhibition (-) or potentiation (+) of the stereotypy score), rats, i.p. dose 10 mg.kg^-1): -62%
- change in vivo at 20 mg/kg ([2]; ip, read-out: % ISS (inhibition (-) or potentiation (+) of the stereotypy score), rats, i.p. dose 20 mg.kg^-1): -48%
- change in vivo at 10 mg/kg ([2]; po, read-out: % ISS (inhibition (-) or potentiation (+) of the stereotypy score), rats, p.o. dose 10 mg.kg^-1): -55%
- change in vivo at 20 mg/kg ([2]; po, read-out: % ISS (inhibition (-) or potentiation (+) of the stereotypy score), rats, p.o. dose 20 mg.kg^-1): -55%
- % ISS (inhibition (-) or potentiation (+) of the stereotypy score) ([3]; i.p. dose 5 mg.kg^-1, amphetamine 1.5 mg.kg^-1 i.p.): +32%
- % ISS (inhibition (-) or potentiation (+) of the stereotypy score) ([3]; i.p. dose 10 mg.kg^-1, amphetamine 1.5 mg.kg^-1 i.p.): +39%
- change in vivo at 1 mg/kg ([4]; ip, read-out: % antagonism of hypothermia, mice, i.p. dose 1): -11%
- change in vivo at 5 mg/kg ([4]; ip, read-out: % antagonism of hypothermia, mice, i.p. dose 5): -57%
- change in vivo at 10 mg/kg ([4]; ip, read-out: % antagonism of hypothermia, mice, i.p. dose 10): -54%
- change in vivo at 20 mg/kg ([4]; ip, read-out: % antagonism of hypothermia, mice, i.p. dose 20): -80%
- change in vivo at 2.5 mg/kg ([4]; po, read-out: % antagonism of hypothermia, mice, p.o. dose 2.5): -35%
- change in vivo at 5 mg/kg ([4]; po, read-out: % antagonism of hypothermia, mice, p.o. dose 5): -59%
- change in vivo at 10 mg/kg ([4]; po, read-out: % antagonism of hypothermia, mice, p.o. dose 10): -70%
- change in vivo at 20 mg/kg ([4]; po, read-out: % antagonism of hypothermia, mice, p.o. dose 20): -86%
- % of pairs of mice showing no sign of fighting ([5]; 2.5 mg.kg^-1): 40%
- % of pairs of mice showing no sign of fighting ([5]; 5 mg.kg^-1): 70%
- % of pairs of mice showing no sign of fighting ([5]; 10 mg.kg^-1): 100%
- % of pairs of mice showing no sign of fighting ([5]; 20 mg.kg^-1): 100%
- % of rats rendered non-aggressive ([6]; 1.25 mg.kg^-1): 17%
- % of rats rendered non-aggressive ([6]; 2.5 mg.kg^-1): 50%
- % of rats rendered non-aggressive ([6]; 5 mg.kg^-1): 73%
- % of rats rendered non-aggressive ([6]; 10 mg.kg^-1): 17%
- % inhibition of hypothermia ([7]; 2.5 mg.kg^-1 i.p.): -62%
- % inhibition of hypothermia ([7]; 5 mg.kg^-1 i.p.): -27%
- % inhibition of hypothermia ([7]; 10 mg.kg^-1 i.p.): -32%
- % inhibition of hypothermia ([7]; 20 mg.kg^-1 i.p.): -47%
- ED50 [8]: 0.146 mg/kg
- % of animals which generalize ([9]; 1.0 mg.kg^-1 i.p.): 20%
- Number of animals showing the effect of generalization with apomorphine ([9]; 1.0 mg.kg^-1 i.p.): 2/10
- % of animals which generalize ([9]; 2.5 mg.kg^-1 i.p.): 77%
- Number of animals showing the effect of generalization with apomorphine ([9]; 2.5 mg.kg^-1 i.p.): 7/9
- % of animals which generalize ([9]; 5.0 mg.kg^-1 i.p.): 50%
- Number of animals showing the effect of generalization with apomorphine ([9]; 5.0 mg.kg^-1 i.p.): 2/4
